Patent publication US20150045367A1, “CINNAMIC ACID HYDROXYAMIDES AS INHIBITORS OF HISTONE DEACETYLASE 8” (PHARMACYCLICS, INC., priority 2011, published 2015)
pIC50: −log10 of the molar value.

Columns and labels:
HDAC6 = target: T1, HDAC6 (Homo sapiens, UniProt Q9UBN7); assay: Histone deacetylase activity, continuous trypsin-coupled assay; format: biochemical; details: trypsin-coupled fluorescence assay, acetyl-Gly-Ala-(N-acetyl-Lys)-AMC substrate
T1 sequence (Q9UBN7 1-1215): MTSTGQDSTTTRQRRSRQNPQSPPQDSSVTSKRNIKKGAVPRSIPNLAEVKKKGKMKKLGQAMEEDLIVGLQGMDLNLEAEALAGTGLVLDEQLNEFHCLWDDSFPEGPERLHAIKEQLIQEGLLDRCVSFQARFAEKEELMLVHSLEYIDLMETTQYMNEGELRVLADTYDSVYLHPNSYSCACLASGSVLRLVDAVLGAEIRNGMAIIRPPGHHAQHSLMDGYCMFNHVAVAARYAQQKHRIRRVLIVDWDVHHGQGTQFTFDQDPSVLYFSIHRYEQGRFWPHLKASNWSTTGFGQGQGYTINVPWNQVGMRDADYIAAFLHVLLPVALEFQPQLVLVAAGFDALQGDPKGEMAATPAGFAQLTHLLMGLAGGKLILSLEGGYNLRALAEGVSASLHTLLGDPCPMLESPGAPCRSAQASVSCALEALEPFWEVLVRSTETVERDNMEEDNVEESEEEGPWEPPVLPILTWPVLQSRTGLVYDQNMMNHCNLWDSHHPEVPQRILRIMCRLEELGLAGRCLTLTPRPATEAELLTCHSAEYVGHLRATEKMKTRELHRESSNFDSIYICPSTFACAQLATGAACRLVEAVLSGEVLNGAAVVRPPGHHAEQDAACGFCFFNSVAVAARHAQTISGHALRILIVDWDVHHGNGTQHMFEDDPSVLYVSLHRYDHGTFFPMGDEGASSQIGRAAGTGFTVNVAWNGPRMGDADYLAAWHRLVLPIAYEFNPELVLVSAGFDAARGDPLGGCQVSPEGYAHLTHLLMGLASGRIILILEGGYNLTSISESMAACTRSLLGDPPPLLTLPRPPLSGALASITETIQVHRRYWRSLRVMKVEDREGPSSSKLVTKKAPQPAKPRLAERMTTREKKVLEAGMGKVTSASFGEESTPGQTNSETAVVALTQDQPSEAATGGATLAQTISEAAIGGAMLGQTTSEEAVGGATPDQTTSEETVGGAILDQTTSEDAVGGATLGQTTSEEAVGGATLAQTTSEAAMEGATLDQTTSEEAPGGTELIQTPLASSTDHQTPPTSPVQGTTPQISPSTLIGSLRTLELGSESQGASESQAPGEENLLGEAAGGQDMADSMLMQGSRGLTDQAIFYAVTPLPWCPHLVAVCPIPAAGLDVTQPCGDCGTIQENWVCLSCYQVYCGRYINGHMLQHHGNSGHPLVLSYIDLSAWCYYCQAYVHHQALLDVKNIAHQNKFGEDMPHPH
Procedure: (§1) HDAC activity is measured using a continuous trypsin-coupled assay that has been described in detail previously (US 20070281934; Schultz et. al., Biochemistry, 43 (34), 11083-11091, 2004; Kim et al. (2006), Methods Mol. Biol., 325:273-283). For inhibitor characterization, measurements are performed in a reaction volume of 100 µL using 96-well assay plates in a fluorescence plate reader. For each isozyme, the HDAC protein in reaction buffer (50 mM HEPES, 100 mM KCl, 0.001% Tween-20, 5% DMSO, pH 7.4, supplemented with bovine serum albumin at concentrations of 0-0.05%, is mixed with inhibitor at various concentrations and allowed to incubate for 15 minutes. Trypsin is added to a final concentration of 50 nM, and acetyl-Gly-Ala-(N-acetyl-Lys)-AMC is added to a final concentration of 25-100 μM to initiate the reaction. After a 30 minute lag time, the fluorescence is measured over a 30 minute time frame using an excitation wavelength of 355 nm and a detection wavelength of 460 nm. The increase in fluorescence with time is used as the measure of the reaction rate. Inhibition constants Ki(app) were obtained using the program BatchKi (Biokin, Pullman, Wash.).

HDAC1 = HDAC1 (Homo sapiens, UniProt Q13547); assay: as above; format: biochemical; details: trypsin-coupled fluorescence assay, acetyl-Gly-Ala-(N-acetyl-Lys)-AMC substrate
Procedure: as §1

HDAC8 = target: T2, HDAC8 (Homo sapiens, UniProt Q9BY41); assay: as above; format: biochemical; details: trypsin-coupled fluorescence assay, acetyl-Gly-Ala-(N-acetyl-Lys)-AMC substrate
T2 sequence (Q9BY41 1-377): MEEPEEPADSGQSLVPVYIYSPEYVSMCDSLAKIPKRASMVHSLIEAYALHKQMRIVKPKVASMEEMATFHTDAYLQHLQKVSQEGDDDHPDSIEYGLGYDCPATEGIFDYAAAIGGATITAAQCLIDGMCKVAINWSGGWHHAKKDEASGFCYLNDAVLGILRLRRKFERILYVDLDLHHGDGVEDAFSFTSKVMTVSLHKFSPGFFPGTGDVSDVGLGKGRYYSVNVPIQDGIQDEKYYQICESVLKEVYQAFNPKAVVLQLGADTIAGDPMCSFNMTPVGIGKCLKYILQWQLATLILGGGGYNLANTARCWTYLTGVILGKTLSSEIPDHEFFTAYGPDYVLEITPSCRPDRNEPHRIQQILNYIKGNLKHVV
Procedure: as §1

Jurkat cells = assay: Cell proliferation assay, growth inhibition by Alamar Blue; format: cell-based; details: Homo sapiens, 72 h, treated with compound for 3 days
Procedure: Cell lines are obtained from DSMZ (Braunschweig, Germany) or ATCC (Manassas, Va.). Cells are grown in RPMI 1640 with 10% fetal bovine serum in a 5% CO2/air incubator at 37° C. Thapsigargin and BAPTA-AM are from Calbiochem (San Diego, Calif.). 3-((dimethylamino)methyl)-N-(2-(4-(hydroxycarbamoyl)phenoxy)ethyl)benzofuran-2-carboxamide is a broad-spectrum HDAC inhibitor which was synthesized as previously described. Other analogs with varying degrees of specificity towards the HDAC isoforms are synthesized as described herein.
Tumor cell lines and human umbilical vein endothelial cells (HUVEC) are cultured for at least two doubling times, and growth is monitored at the end of compound exposure using an Alamar Blue™ (Biosource, Camarillo, Calif.) fluorometric cell proliferation assay as recommended by the manufacturer. Compounds are assayed in triplicate wells in 96-well plates. The concentration required to inhibit cell growth by 50% (GI50) and 95% confidence intervals are estimated from nonlinear regression using a 4-parameter logistic equation. The effect of HDAC8 selective inhibitor compounds on cell proliferation in Jurkat cells is measured. Apoptosis is measured by Annexin-V flow cytommetry. Growth inhibiton iss measured by Alamar Blue assay. Cells are treated with compound for 3 days.

Chain of HDAC1 (Q13547 whole entry): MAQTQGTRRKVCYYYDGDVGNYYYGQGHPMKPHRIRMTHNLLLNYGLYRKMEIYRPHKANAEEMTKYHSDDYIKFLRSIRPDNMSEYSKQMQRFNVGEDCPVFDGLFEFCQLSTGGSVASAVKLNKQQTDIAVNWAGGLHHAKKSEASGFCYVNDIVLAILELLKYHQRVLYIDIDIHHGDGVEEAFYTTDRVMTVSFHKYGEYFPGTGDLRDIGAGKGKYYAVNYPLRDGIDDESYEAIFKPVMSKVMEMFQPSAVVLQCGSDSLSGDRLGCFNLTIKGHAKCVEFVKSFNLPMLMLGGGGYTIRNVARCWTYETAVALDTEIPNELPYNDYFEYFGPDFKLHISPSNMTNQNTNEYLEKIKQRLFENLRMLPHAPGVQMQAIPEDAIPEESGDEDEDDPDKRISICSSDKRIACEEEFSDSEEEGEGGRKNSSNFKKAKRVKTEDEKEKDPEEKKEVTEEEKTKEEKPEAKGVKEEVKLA

| SMILES | pIC50 (HDAC6) | pIC50 (HDAC1) | pIC50 (HDAC8) | GI50 (Jurkat cells) |
| --- | --- | --- | --- | --- |
| O=C(/C=C/c1ccccc1Oc1ccc(Cl)cc1)NO [Compound 6, (E)-3-(2-(4-chlorophenoxy)phenyl)-N-hydroxyacrylamide] | 5.00 to 6.00 | 5.00 to 6.00 | ≥ 7.00 | 1430 nM |
| O=C(/C=C/c1ccccc1Oc1ccccc1)NO [Compound 7, (E)-N-Hydroxy-3-(2-phenoxyphenyl)acrylamide] | 6.00 to 7.00 | 5.00 to 6.00 | ≥ 7.00 |  |
| Cc1ccc(Oc2ccccc2/C=C/C(=O)NO)cc1 [Compound 8, (E)-3-(2-(p-Tolyloxy)phenyl)-N-hydroxyacrylamide] | 6.00 to 7.00 | 5.00 to 6.00 | ≥ 7.00 | 6100 nM |
| O=C(/C=C/c1ccccc1Oc1ccc(F)cc1)NO [Compound 9, (E)-3-(2-(4-Fluorophenoxy)phenyl)-N-hydroxyacrylamide] | 5.00 to 6.00 | 5.00 to 6.00 | ≥ 7.00 | 2000 nM |
| COc1cccc(Oc2ccccc2/C=C/C(=O)NO)c1 [Compound 15, (E)-N-hydroxy-3-(2-(3-methoxyphenoxy)phenyl)acrylamide] | 6.00 to 7.00 | 5.00 to 6.00 | ≥ 7.00 | 3370 nM |
| O=C(/C=C/c1ccccc1Oc1cccnc1)NO [Compound 16, (E)-N-Hydroxy-3-(2-(pyridin-3-yloxy)phenyl)acrylamide] | 5.00 to 6.00 | 5.00 to 6.00 | ≥ 7.00 | > 20000 nM |
| O=C(/C=C/c1ccccc1OC1CCN(C(=O)c2ccccc2)CC1)NO [Compound 20, (E)-3-(2-(1-benzoylpiperidin-4-yloxy)phenyl)-N-hydroxyacrylamide] | 5.00 to 6.00 | 5.00 to 6.00 | ≥ 7.00 | 9700 nM |
| CC(=O)Nc1ccc(Oc2cccc(Cl)c2)c(/C=C/C(=O)NO)c1 [Compound 42, (E)-3-(5-acetamido-2-(3-chlorophenoxy)phenyl)-N-hydroxyacrylamide] | < 5.00 | < 5.00 | ≥ 7.00 |  |
| O=C(/C=C/c1ccc(OCc2cccnc2)cc1Oc1cccc(Cl)c1)NO [Compound 59, (E)-3-(2-(3-chlorophenoxy)-4-(pyridin-3-ylmethoxy)phenyl)-N-hydroxyacrylamide] | 6.00 to 7.00 | 5.00 to 6.00 | ≥ 7.00 |  |
| CN(C)CCOc1ccc(/C=C/C(=O)NO)c(Oc2cccc(Cl)c2)c1 [Compound 69, (E)-3-(2-(3-chlorophenoxy)-4-(2-(dimethylamino)ethoxy)phenyl)-N-hydroxyacrylamide] | 6.00 to 7.00 | 6.00 to 7.00 | ≥ 7.00 |  |
| COCCOc1ccc(/C=C/C(=O)NO)c(Oc2ccc(Cl)c(Cl)c2)c1 [Compound 80, (E)-3-(2-(3,4-dichlorophenoxy)-4-(2-methoxyethoxy)phenyl)-N-hydroxyacrylamide] | 5.00 to 6.00 | < 5.00 | ≥ 7.00 |  |

Next, values leading:

| pIC50 (HDAC6) | pIC50 (HDAC1) | pIC50 (HDAC8) | GI50 (Jurkat cells) | SMILES |
| --- | --- | --- | --- | --- |
| 6.00 to 7.00 | 5.00 to 6.00 | ≥ 7.00 | 2250 nM | COc1ccc(Oc2ccccc2/C=C/C(=O)NO)cc1 [Compound 10, (E)-N-hydroxy-3-(2-(4-methoxyphenoxy)phenyl)acrylamide] |
| 6.00 to 7.00 | 5.00 to 6.00 | ≥ 7.00 | 1980 nM | O=C(/C=C/c1ccccc1Oc1cccc(Cl)c1)NO [Compound 11, (E)-3-(2-(3-Chlorophenoxy)phenyl)-N-hydroxyacrylamide] |
| 5.00 to 6.00 | 5.00 to 6.00 | ≥ 7.00 | 1800 nM | O=C(/C=C/c1ccccc1Oc1ccc(Cl)c(Cl)c1)NO [Compound 12, (E)-3-(2-(3,4-Dichlorophenoxy)phenyl)-N-hydroxyacrylamide] |
| 5.00 to 6.00 | 5.00 to 6.00 | ≥ 7.00 | 2500 nM | Cc1cccc(Oc2ccccc2/C=C/C(=O)NO)c1 [Compound 13, (E)-N-hydroxy-3-(2-(m-tolyloxy)phenyl)acrylamide] |
| 5.00 to 6.00 | 5.00 to 6.00 | ≥ 7.00 | 3580 nM | O=C(/C=C/c1ccccc1Oc1cccc(F)c1)NO [Compound 14, (E)-3-(2-(3-Fluorophenoxy)phenyl)-N-hydroxyacrylamide] |
| < 5.00 | < 5.00 | ≥ 7.00 |  | O=C(/C=C/c1ccccc1Oc1ccncc1)NO [Compound 17, (E)-N-Hydroxy-3-(2-(pyridin-4-yloxy)phenyl)acrylamide] |
| 5.00 to 6.00 | < 5.00 | ≥ 7.00 |  | O=C(/C=C/c1cc(NCc2cccnc2)ccc1Oc1ccc(F)cc1)NO [Compound 49, (E)-3-(2-(4-fluorophenoxy)-5-(pyridin-3-ylmethylamino)phenyl)-N-hydroxyacrylamide] |
| 6.00 to 7.00 | 5.00 to 6.00 | ≥ 7.00 |  | O=C(/C=C/c1ccc(OCCN2CCOCC2)cc1Oc1cccc(Cl)c1)NO [Compound 67, (E)-3-(2-(3-chlorophenoxy)-4-(2-morpholinoethoxy)phenyl)-N-hydroxyacrylamide] |
| 6.00 to 7.00 | 5.00 to 6.00 | ≥ 7.00 |  | CN1CCN(CCOc2ccc(/C=C/C(=O)NO)c(Oc3cccc(Cl)c3)c2)CC1 [Compound 68, (E)-3-(2-(3-chlorophenoxy)-4-(2-(4-methylpiperazin-1-yl)ethoxy)phenyl)-N-hydroxyacrylamide] |
